This passage reports melting point results from a melting point compilation (Tetko et al.; mined from patent text by program, amines drawn as free bases though some values may be those of a salt).

Molecules are shown by their SMILES.

For `COCCNn1ncc2nc(C)ccc21`, the melting point (commonly the temperature of the solid-liquid transition) was in the range of 167 to 170 °C.

Regarding `CCC(C)COC(=O)Oc1ccc(-c2ccc(OC(=O)OCC(C)CC)cc2)cc1` (stereo not drawn), the melting point came to 85.5 °C. Molecule `N#Cc1nn(-c2c(Cl)cc(-c3c(F)c(F)nc(F)c3F)cc2Cl)c(N)c1SC(F)(F)F` had a melting point of 100 to 104 °C. The molecule `CN1CCC(=O)N(c2cccc(Cl)c2Cl)C1=O` gave a melting point of 163 to 165 °C. `Cc1ncc(C#N)c(Nc2ccc3[nH]ccc3c2C)c1-c1cc2cc(CN3CCN(C)CC3)ccc2o1`: the melting point lay within 218 to 220 °C. The molecule `COc1ccnc(CCc2nc3cncnc3[nH]2)c1` registered a melting point of 150 to 152 °C. For `CCCC(=O)C(=CNc1cccc(COC(=O)c2ccccc2)c1)C(=O)OCC` the value was 59 to 63 °C; for `Cn1c(Cl)c(Cl)c(C(=O)c2cc(C(C)(C)C)c(O)c(C(C)(C)C)c2)c1Cl`, 155 to 156 °C. Turning to `CCOc1c(Cc2c[nH]c3ccccc23)[nH]c(=O)c(CC(C)C)[n+]1[O-]`, the melting point fell in the range of 192 to 193 °C. `CCNc1nc(C)nc(O)c1C(C)C` gave a melting point of 180 °C. Take `CC(C)(C)OC(=O)Nc1ccc(-c2ccc(OCc3ccccc3)nc2)cc1[N+](=O)[O-]`: the melting point was in the range of 119 to 122 °C.

The molecule `COCCc1nc2c(N)nc3ccccc3c2n1CCOc1ccccc1` came in with a melting point of 171 to 174 °C. The same measure for `CCOC(=O)c1cn(CC)c2nn(C)cc2c1=O`: 170 to 172 °C. Regarding `O=c1nc(N2CCN(Cc3ccccc3)CC2)sc2c([N+](=O)[O-])cc(C(F)(F)F)cc12`, the melting point is 161 to 163 °C. The same measure for `CC(C)n1nc(-c2sc(NCc3ccco3)nc2-c2ccccc2)ccc1=O`: 115 to 116 °C; for `O=C1c2ccccc2C(=O)N1CCc1ccc(OC(F)(F)F)c(OC(F)(F)F)c1`: 60 to 61 °C; for `Cn1nc(-c2ccc(NN=C(CCC(=O)O)c3ccc(O)cc3O)cc2)ccc1=O`: 138 to 141 °C. As to `COCOc1ccc(O)cc1OC`, the melting point was in the range of 70 to 72 °C.

In turn, `CC(c1oc2ccccc2c(=O)c1-c1cccc(F)c1)n1nc(-c2csc(CO)c2)c2c(N)ncnc21` (stereo not drawn) came in with a melting point of 154 to 156 °C. For `COC(=O)CCCC(=O)N(CCc1c[nH]c2ccccc12)Cc1ccccc1` the value was 107 to 108 °C; for `CC(F)(F)c1cccc(Oc2ccc(C3CCCN4CCS(=O)(=O)N=C34)cc2)c1` (stereo not drawn), 117 to 118 °C. As to `O=C(C(=O)c1cccc(F)c1)c1cccc(F)c1`, the melting point is 104 to 105 °C.

Turning to `CN(CC(=O)O)CC(=O)Nc1cc(Cc2n[nH]c(=O)c3ccccc23)ccc1F`, the melting point is 194 to 198 °C. The molecule `Cc1nc2c([N+](=O)[O-])cccn2c1C=O` registered a melting point of 188 to 189 °C. As for `COc1c(C(C)(C)C)cc(N2CCCC2=O)cc1C(C)(C)C`, the melting point lay within 90 to 91 °C. In the case of `O=C(Nc1cccc2ncccc12)N1CCN2C(=O)OC(c3ccccc3)(c3ccccc3)C2C1` (stereo not drawn), the melting point was 234 to 236 °C. As for `Cc1coc2c1C(=O)CC(c1ccc(F)cc1F)C2` (stereo not drawn), the melting point was 101 to 102 °C. Consider `CC(=O)C1=C(O)CC(C)OC1=O` (stereo not drawn), for which the melting point was in the range of 96 to 98 °C.

Take `Cc1cc(=O)[nH]c(SCc2ccccc2N(C)C)n1`: the melting point was 152 to 154 °C.

In turn, `COc1cccc(OC)c1-c1ccc(C[C@H](NC(=O)c2c(Cl)cc(-c3cnccn3)cc2Cl)C(=O)O)cc1` gave a melting point of 146 °C. `CCCCCCCCCCCC#Cc1cnccc1C=CC(=O)O` returned a melting point of 177 to 178 °C.

In turn, `NN=C1c2ccccc2-c2ccc(F)cc21` gave a melting point of 161 to 165 °C.

The molecule `CCCc1nc(Cl)c(C(=O)O)n1Cc1ccc(C2(C(=O)OCC)CC=CC2)s1` came in with a melting point of 114 to 115 °C. For `CC=CC(=O)Nc1cc(C(C)(C)C)c(O)c(C(C)(C)C)c1` the value was 211 to 214 °C; for `CCc1cc(OCc2ccc(-c3ccccc3-c3nnnn3-c3ccc([N+](=O)[O-])cc3)cc2)c2c(n1)CCCC2`, 205 to 207 °C. Molecule `CCN(CC)Cc1cnc2c(C)c(NC(=O)c3ccc(-c4ccc(F)cc4)cc3)ccc2c1` came in with a melting point of 155 to 156 °C.

`CC1C(=O)Nc2cccc3c2N1C(=O)C3c1ccccc1` (stereo not drawn) showed a melting point of 208 to 211 °C. The same measure for `Nc1nc2c(c(N3CCN(CCc4ccccc4)CC3)n1)Cc1ccccc1-2`: 122 to 124 °C; for `CC(C)Cc1[nH]nc2c(N)nc3ccccc3c12`: 248 to 249 °C; for `COc1cc(OC)c2c(=O)[nH]c(-c3cc(C)c(OCCN4CCN(C(C)=O)CC4)c(C)c3)nc2c1`: 213 to 214 °C. `O=C(C(=Cc1ccc([N+](=O)[O-])cc1)c1ccccc1)c1ccc(O)cc1` displayed a melting point of 153 to 157 °C. Molecule `N#Cc1nn(-c2c(Cl)cc(OC(F)(F)F)cc2Cl)c(N)c1I` came in with a melting point of 150 °C. `O=c1[nH]cc(Br)cc1Nc1ccncn1` yielded a melting point of 150 to 151 °C. For `C=C(C(=O)c1cc(OC)c(OC)c(-c2cccs2)c1)c1ccc(C(=O)O)cc1` the value was 159 to 160 °C. The same measure for `CCOC(=O)C(=O)c1cc(O)c(O)c([N+](=O)[O-])c1`: 77 to 79 °C. The same measure for `COC(=O)c1ccc(/C=C/C(=O)O)s1`: 180 °C; for `CN(C)c1ccc(-c2cccc3c2C2(COc4cc5c(cc42)OCO5)C(=O)N3Cc2ccc(C(F)(F)F)o2)cn1` (stereo not drawn): 174 to 176 °C; for `O=Cc1ccc2c(c1F)OC(c1ccccc1)(c1ccccc1)O2`: 92 to 94 °C. Molecule `CCCCCCCC(=O)NCCCCO` had a melting point of 76 to 77 °C.

`COc1ccc(-c2cccc3c2OC(COS(=O)(=O)c2ccc(C)cc2)C3)cc1` (stereo not drawn) registered a melting point of 116 to 117 °C. For `O=C(O)CCCCC=Cc1cccc(Cc2ccccc2)c1` the value was 68 °C. For `CCOC(=O)COc1ccccc1-c1nc2n(C3CCCC3)[nH]c(CC)c-2c(=O)n1`, the melting point fell in the range of 116 to 117 °C. The same measure for `COCC1CN(c2ccc(C3CCC4(CC3)OCCO4)cn2)C(=O)O1` (racemic): 117 to 121 °C.

Regarding `CCCCc1ncc(/C=C(\Cc2ccc(C)s2)c2nnn[nH]2)n1Cc1ccccc1Cl`, the melting point was in the range of 151 to 153 °C. Regarding `CC(c1ccccc1)N1CC2Cc3cc4ccccc4n3CC2C1` (stereo not drawn), the melting point is 153 °C. The molecule `O=[N+]([O-])c1ccc2nc(-c3ccco3)[nH]c2c1` gave a melting point of 228 to 229 °C.

`O=C1c2ccc(S(=O)(=O)c3ccccc3)cc2C(=O)c2c1c(Oc1ccccc1)c1ccccc1c2Oc1ccccc1` yielded a melting point of 260 to 270 °C. `COc1cccc(C2c3ccccc3C(c3ccc4c(c3)OCO4)C2C(=O)O)c1` (stereo not drawn) gave a melting point of 131 to 133 °C. The same measure for `CCCn1nc(SCCCCCC(=O)O)c(C(=O)O)c1Cc1cc2c(cc1Cl)OCO2`: 88 °C; for `CC(C)c1cc(-c2cc(C(=O)O)ccc2S(C)(=O)=O)on1`: 176 to 178 °C. Regarding `CC(=O)Nc1ccc(OC(F)F)c(OC(F)F)c1`, the melting point was in the range of 65 to 67 °C. With `O=C(Nc1ccc(Oc2ccccc2F)nc1)N1CCc2ccccc2CC1`, the melting point is 170 to 172 °C. `Cc1cc2c(c3ccc(=O)[nH]c13)OC(COS(C)(=O)=O)C2` (stereo not drawn) returned a melting point of 200 to 203 °C. For `COc1cc(Nc2c(C#N)cnc3cc(-c4ccc(CN5CCOCC5)o4)ccc23)c(Cl)cc1Cl` the value was 182 to 183 °C; for `CCOC(=O)Nc1cc(OC(=O)OC)c(Cl)cc1F`, 144 to 147 °C. `CCCc1c(OCCCCCCc2ccc(CCCCC(=O)O)cc2CCC(=O)O)ccc2c1OCCC2=O` showed a melting point of 108 to 109 °C. The same measure for `Cc1c(NC(=O)c2ccc(-c3ccccc3)c(F)c2)ccc2cc(CN3CCCC3)cnc12`: 156 to 158 °C; for `O=C1N(Cc2ccccc2)OCCN1c1ccc(Cl)c(Cl)c1`: 76 °C. Turning to `C=C=C(C)C1Oc2cccc(OC)c2-c2ccc3c(c21)C(C)=CC(C)(C)N3` (stereo not drawn), the melting point was 59 to 63 °C.

For `CCOC(=O)C=CC(=O)c1ccc(Oc2ccc(Cl)cc2)cc1`, the melting point lay within 57 to 58 °C. `CN(C=O)c1cc([N+](=O)[O-])cc([N+](=O)[O-])c1` displayed a melting point of 93 to 94 °C. With `CCOC(=O)C(CC(=O)c1cccc(F)c1)(NC(C)=O)C(=O)OCC`, the melting point fell in the range of 121 to 123 °C.

`COc1cccc(-c2ccc(NC(=O)OC(C)(C)C)c([N+](=O)[O-])c2)c1` came in with a melting point of 104 to 107 °C. `O=[N+]([O-])c1ccc2[nH]cc(Cc3ccc(F)cc3)c2c1`: the melting point was in the range of 142 to 144 °C. In the case of `Cc1ccccc1-c1ccc(C(=O)Nc2ccc3cc(CN4CCCC4)cnc3c2C)cc1`, the melting point was in the range of 150 to 151 °C.

With `CCCc1c(OCCCCCc2c(Cl)c(Cl)cc(OC)c2OC)ccc(C(=O)O)c1O`, the melting point lay in the range of 152 to 154 °C.

For `C#CC1(O)CCc2c(O)c3c(c(O)c2C1)C(=O)c1ccccc1C3=O` (stereo not drawn), the melting point is 230 °C. `CC(=O)NN[C@@H]1c2cc(C#N)ccc2OC(C)(C)[C@H]1O` (relative stereo): the melting point is 209 to 210 °C.

As to `CC(C)n1cc(-c2nc(C(N)=O)c(N)nc2-c2cccc(Cl)c2)ccc1=O`, the melting point was 233 °C.

Turning to `O=C(O)CCCCCCc1cccc(-c2nc(=O)c3ccccc3s2)n1`, the melting point is 149 to 151 °C. Molecule `NS(=O)(=O)c1ccc(-n2nccc2-c2ccc(Cl)cc2)cc1` had a melting point of 185 to 187 °C. As to `CCCCCCCCCCCCCCNC(=O)c1cnccn1`, the melting point was 80 to 81 °C. The same measure for `N#CC(Nc1ccccc1C(=O)C1CC1)c1c(Cl)cccc1Cl` (stereo not drawn): 144 °C. Consider `O=C(C(CCO)N1CCCC1=O)N1CCOCC1` (stereo not drawn), for which the melting point was 105 to 106 °C. For `Cc1ccc(C(=O)C2=C(O)C(=O)N(c3ncc(S(=O)(=O)N(C)C)s3)C2c2ccc(C(C)C)cc2)cc1` (stereo not drawn), the melting point fell in the range of 237 to 241 °C. Regarding `C=CCOc1ccc2c(C)c(F)c(=O)oc2c1C`, the melting point was 117 °C. In the case of `COc1ccc(C(=O)Nc2ccccc2CCCC2CCCCN2C)cc1` (stereo not drawn), the melting point lay within 107 to 110 °C. Molecule `COC(=O)c1c(S(N)(=O)=O)ccn1C` registered a melting point of 105 to 107 °C.
